Source: the NIST ThermoML archive (doi:10.1021/acs.jced.6b00210)

Test: xn = mol fraction of the nth substance listed
Conditions: 100 kPa, Liquid; for viscosity: Concentric cylinders viscometry; for mass density: Vibrating tube method

Nc1ccccc1 [aniline] + CC(C)O
Conditions	mass density, 293.15 K [kg/m3]	mass density, 298.15 K [kg/m3]	mass density, 303.15 K [kg/m3]	viscosity, 293.15 K [mPa·s]	viscosity, 298.15 K [mPa·s]	viscosity, 303.15 K [mPa·s]	viscosity, 308.15 K [mPa·s]
x1 = 0.0813	809.7	805.3	800.8	2.291	1.963	1.651	1.454
x1 = 0.1599	832	827.5	823	2.176	1.86	1.56	1.39
x1 = 0.2396	853.7	849.2	844.6	2.12	1.8	1.5	1.34
x1 = 0.349	882	877.4	872.8	2.1	1.78	1.47	1.3
x1 = 0.4402	904.3	899.7	895.1	2.17	1.84	1.48	1.3
x1 = 0.5598	932.1	927.6	923	2.33	1.98	1.58	1.36
x1 = 0.6501	952	947.5	942.9	2.54	2.16	1.7	1.48
x1 = 0.74	971	966.5	961.9	2.81	2.39	1.9	1.67
x1 = 0.8499	993.2	988.8	984.2	3.31	2.84	2.27	1.99
x1 = 0.9402	1010.6	1006.2	1001.8	3.93	3.39	2.73	2.39
x1 = 1	1021.7	1017.4	1013.2	4.37	3.8	3.13	2.75
